# Experimental data as given in US12285034B2, “Human and non-human animal use of microbial anaplerotic oil” (HELIAE DEVELOPMENT, LLC, priority 2017, dated 2025).
# Like-named read-outs stand apart in the source and are kept apart here.
# Key:
# Y. lipolytica = assay: Model of cytoplasmic propionate in Yarrowia lipolytica; settings: 2 g/L d propionic fed, pH 3
# From the text: In this aspect, while the propionate and free proton form enters the microalgae cell through a monocarboxylic symport structure, propionic acid is membrane permeable and may be diffused directly into the microalgae cell. Therefore, in this aspect, the uptake of propionate can be controlled by the cell, and the uptake of propionic acid may not be controlled by the cell. As an example, the uncontrolled uptake of propionic acid presumably lowers the internal Aurantiochytrium cell pH; in turn, the cell attempts to maintain its pH homeostasis by pumping protons out of the cell. […] In one implementation, the change in pH may be calculated with the following equation derived from the Henderson and Hasselbalch equation: […]
# In these implementations, the results illustrate that growth of the Y. lipolytica may not be affected by up to 2 g/L d propionic fed despite the low pH (3) present.
# [1] = test system: Aurantiochytrium acetophilum HS399; assay: Cyanocobalamin and propionate deposition, flask (Example 10); type: cell-based; settings: for Final Propionate: initial 3 g/L; for Cell dry weight: propionate 3 g/L
# [2] = test system: Aurantiochytrium acetophilum HS399
# Experimental: In one implementation, a 250 mL Erlenmeyer flask can be used to cultivate A. acetophilum HS399.
# In one implementation, a 250 mL Erlenmeyer flask can be used to cultivate A. acetophilum HS399. […] Cell dry weights may be analyzed using a filtration method. Ammonia can be measured using a Cedex bio-analyzer (Roche). […] The fatty acid profile of the biomass can be analyzed using gas chromatography.
# [3] = test system: Aurantiochytrium acetophilum HS399; assay: Growth on propionate as sole carbon source (Example 9); type: cell-based; settings: 10 g/L, pH 7
# From the text: FIG. 35 is a graphical representation of one implementation that illustrates results 3500 of growth of A. acetophilum HS399 with different carbon sources.
# [4] = test system: Aurantiochytrium acetophilum HS399; type: cell-based
# From the text: In another implementation, a New Brunswick 10 L Bioflo Pro 300 fermenter (Eppendorf) can be used to provide an improvement in the productivity of OCFAs accumulation, previously identified in flasks and bubble columns. In this implementation, a bioprocess can be devised to incorporate one or more portions of one or more techniques described herein. […] As an example, in this implementation, the pH-auxostat is operated at a pH set point of 6.5 to mitigate propionic toxicity. […] A control treatment can be provided […] propionate, to be used as comparison. […] The fermenters are aerated at 0.5 vvm and are maintained at 27° C. under axenic conditions. […] This medium can also contain a trace element solution (25 ml/L) and vitamin solution (5 ml/L). The trace element solution contains (g/L): […] In this example, the fermenter is fed another 5-6 L of a medium containing (g/L): ammonium phosphate (2.5), ammonium hydroxide (29% pure) (15.2), corn syrup DE95 (1143). This medium can also contain a trace element solution (25 ml/L) and a vitamin solution (5 ml/L). In this example, this medium is fed in a DO-stat mode in response to dissolved oxygen values detected above 15% saturation. […] The pH is maintained at 5.8 using NaOH, while the batch ammonia is consumed. The pH can drift to higher values when the residual ammonia is substantially exhausted from the fermenter. […] Culture materials and media can be autoclaved (e.g., 121° C., 15 min) while separating the nitrogen and the carbon source. Foam can be controlled (e.g., automatically) through the addition of (<1 ml/L) Hodag antifoam. […] Residual glucose can be analyzed from culture supernatant (e.g., 5000 g; 5 min) using a colorimetric method based on glucose […] activity. Residual acetate and propionate can be analyzed by HPLC using an acceptable external standard.
# [5] = test system: Aurantiochytrium acetophilum HS399; settings: for OCFA / Total Fatty Acids: 73 h, 10 L fermenter
# Experimental: […] In this implementation, the pH can be maintained at 7±1 in respective treatments.
# In one implementation, fermenters may be used to culture A. acetophilum HS399. […] In this implementation, two treatments using different cyanocobalamin concentrations (0.00185, 0 μM) are compared in duplicates.
# mold and bacteria = settings: low levels; cited from earlier work
# [6] = test system: Aurantiochytrium acetophilum HS399; type: cell-based; remark: listed apart in the source
# Experimental: In this implementation, initially (24 h incubation), the culture pH may not be controlled, and the pH of the respective treatments can drift from 7.5 to 8. After 24 h incubation, the desired pH set point of each treatment can be set using the respective organic acids. […] The cultures are aerated at 1.4 vvm and maintained at 27° C. under axenic conditions. […] This medium also contains a trace element solution (5 ml/L) and a vitamin solution (1 ml/L). The trace element solution can contain (g/L): […] […] Residual glucose is analyzed from culture supernatant (5000 g; 5 min) using a colorimetric method based on glucose […] activity. Residual acetate and propionate are analyzed by HPLC using external standard.
compound,measurement,setting,value
"CCC(=O)O [Propionate, propionic acid]",accumulation of cytoplasmic propionate,Y. lipolytica,328 g/L
same,Propionate deposition,"[1]; cyanocobalamin 0 μM, listed as Propionic acid",99.9 ± 5.8 % fed
same,Propionate deposition,"[1]; cyanocobalamin 0 μM, listed as propionate",99.5 % fed
same,Propionate deposition,[1]; cyanocobalamin 0.00037 μM,47.0 ± 0.9 % fed
same,Propionate deposition,[1]; cyanocobalamin 0.37 μM,10.3 ± 1.0 % fed
same,Final Propionate,[1]; cyanocobalamin 0 μM,0.36 g/L
same,Final Propionate,[1]; cyanocobalamin 0.00037 μM,0.1 g/L
same,Final Propionate,[1]; cyanocobalamin 0.37 μM,0.06 g/L
same,Cell dry weight,[1]; cyanocobalamin 0 μM,35.0 ± 1.2 g/L
same,Cell dry weight,[1]; cyanocobalamin 0.00037 μM,32.0 ± 0.7 g/L
same,Cell dry weight,[1]; cyanocobalamin 0.37 μM,37.0 ± 1.4 g/L
same,Propionate deposition,[2]; 0 + 3 g/L fed in lipid phase,58.8 ± 1.9%
same,Propionate deposition,"[2]; 0 + 3 g/L fed in lipid phase, listed as propionate",58.8%
same,Propionate deposition,[2]; 3 g/L fed in growth phase,53.0 ± 1.0%
same,Propionate deposition,"[2]; 3 g/L fed in growth phase, listed as propionate",53%
same,growth on propionate as sole carbon source,[3],did not support growth above that of the starved treatment
same,effect on growth,[4],slightly inhibited
same,OCFAs,[4]; propionic acid titration,60 % TFA
same,accumulated lipids,[4]; propionic acid titration,70 % DW
same,average cumulative productivities,[4]; propionic acid titration,approximately 30 g/L/d
same,productivity of OCFAs,[4]; propionic acid titration,10 g/L/day
same,Cell dry weight,"[4]; propionic acid titration, 10 L fermenter",170 g/L
same,consumption of propionic per gram of biomass,[4]; total consumed during process,0.155 g
same,less propionic acid consumed without cyanocobalamin,"[5]; 10 L fermenters, pH-auxostat, 0 μM vs with cyanocobalamin",30%
same,OCFA,[5]; cyanocobalamin 0 μM,52.0 % TFA
same,Total Fatty Acids,[5]; cyanocobalamin 0 μM,56.9 % DW
same,OCFA,[5]; cyanocobalamin 0.37 μM,52.6 ± 0.5 % TFA
same,Total Fatty Acids,[5]; cyanocobalamin 0.37 μM,54.7 ± 0.5 % DW
same,Propionate deposition,[5]; cyanocobalamin 0 μM,65.7%
same,gpropionate/gbiomass,[5]; cyanocobalamin 0 μM,0.14
same,Propionate deposition,[5]; cyanocobalamin 0.37 μM,49.9%
same,gpropionate/gbiomass,[5]; cyanocobalamin 0.37 μM,0.18 ± 0.01
same,time in which initial propionate is consumed,"[5]; initial 3 g/L, pH 7±1, flask",≤ 72 h
same,level inhibiting growth of mold and bacteria,mold and bacteria,< 1 % by weight
same,"effect on growth (cell dry weight, glucose)",[6],highly growth inhibitory
same,Consumed propionate,[6]; pH 5 set point,2.3 ± 0.2 g/L
same,Propionic Acid Deposited,[6]; pH 5 set point,30.9 ± 2.0%
same,Consumed propionate,[6]; pH 6 set point,2.4 ± 0.1 g/L
same,Propionic Acid Deposited,[6]; pH 6 set point,40.3 ± 1.6%
same,effect on growth (cell dry weight),[6]; pH 7,not growth inhibitory
same,Consumed propionate,[6]; pH 7 set point,1.0 ± 0.1 g/L
same,Propionic Acid Deposited,[6]; pH 7 set point,24.7 ± 1.0%
same,Total Fatty Acid,"[6]; propionic acid titrant, pH 5",59.2 ± 3.1 % CDW
same,Total Lipids,"[6]; propionic acid titrant, pH 5",75.0 ± 3.0 % CDW
same,Total Fatty Acid,"[6]; propionic acid titrant, pH 6",63.4 ± 0.3 % CDW
same,Total Lipids,"[6]; propionic acid titrant, pH 6",79.5 ± 1.5 % CDW
same,OCFA,"[6]; propionic acid titrant, pH 7",6.3 % TFA
same,Total Fatty Acid,"[6]; propionic acid titrant, pH 7",70.3 ± 2.8 % CDW
same,Total Lipids,"[6]; propionic acid titrant, pH 7",87.5 ± 1.5 % CDW
